In PubChem BioAssay (NCI) one finds TGI and GI50 data, which are given here for 15 compounds.

Where “and” joins values, the source holds several entries; their conditions need not be identical. Equal values may be shown once.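 Five compound concentrations were applied to cells in 96-well plates for 48 hours; endpoints were derived by simple linear interpolation of the resulting dose-response curve. Abbreviation: GI50, concentration required for 50% inhibition of growth. TGI marks complete inhibition of growth.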

What is called TGI is the concentration giving total growth inhibition. Low values mean greater sensitivity of the cells, high ones lower sensitivity of the cells. One may read the GI50 as the concentration that inhibits growth by half.

Some test systems named below: A549 NSCLC; DLD-1 colon; M19-MEL melanoma; NCI-H522 lung; SK-MEL-2 melanoma; SW-620 colon; MOLT-4 leukemia; SF-295 CNS; HOP-62 NSCLC.
Assay in all cases: DTP human tumour cell line panel, 48 h

For `O=c1ncccn1C1OC(CO)C(O)C1O` (stereo not drawn), the TGI in the assay on A549 NSCLC, in the assay with DLD-1 colon, with M19-MEL melanoma, in the assay on NCI-H522 lung, in the assay with SK-MEL-2 melanoma and with SW-620 colon was more than 100 µM each time.
As to `c1ccc2c(c1)oc1ccc3nsnc3c12`, the TGI in the assay on A549 NSCLC, in the assay on DLD-1 colon, with M19-MEL melanoma, in the assay with MOLT-4 leukemia, in the assay on NCI-H522 lung and in the assay with SF-295 CNS was more than 100 µM each time. Moreover, the TGI in the assay on SK-MEL-2 melanoma and in the assay on SW-620 colon was more than 100 µM in each case.
For the compound `O=C(O)CCNCCCCNCCC(=O)O`, the TGI in the assay with A549 NSCLC, with DLD-1 colon, in the assay on HOP-62 NSCLC, in the assay on MOLT-4 leukemia, in the assay with NCI-H522 lung and in the assay on SF-295 CNS was more than 100 µM throughout. The TGI with SK-MEL-2 melanoma and in the assay on SW-620 colon was more than 100 µM in each case.
Consider `C=CCC1=C(C)C[C@@H]2CCC(=O)C=C12`, for which the TGI with A549 NSCLC, in the assay with HOP-62 NSCLC, with M19-MEL melanoma, with MOLT-4 leukemia, in the assay on NCI-H522 lung and with SF-295 CNS was more than 100 µM throughout. In addition, the TGI with SK-MEL-2 melanoma and with SW-620 colon was more than 100 µM each time.
For the compound `CC(C)CCCC(C)[C@H]1CCC2[C@@H]3CCC4Nc5c(cnn5-c5ccccc5)C[C@]4(C)C3CC[C@@]21C` (stereo partly drawn), the TGI with A549 NSCLC was more than 100 µM; in the assay with DLD-1 colon it was more than 100 µM; in the assay on HOP-62 NSCLC, 45.7 µM; in the assay with M19-MEL melanoma it was more than 100 µM; with MOLT-4 leukemia, more than 100 µM; with NCI-H522 lung, more than 100 µM. Besides, the results for the TGI in the assay on SF-295 CNS, in the assay with SK-MEL-2 melanoma and in the assay on SW-620 colon were 7.46 µM, more than 100 µM and more than 100 µM, respectively.
Turning to `C=CCO/N=C(\OC(=O)c1ccc([N+](=O)[O-])cc1)c1ccccc1`, the TGI with A549 NSCLC, in the assay on DLD-1 colon, in the assay on HOP-62 NSCLC, in the assay on M19-MEL melanoma, in the assay on SF-295 CNS and in the assay with SK-MEL-2 melanoma was more than 100 µM in each case. Besides, the TGI with SW-620 colon was more than 100 µM.
Take `C[Si](C)(C)/C=C\CCO`: the total growth inhibition concentration (TGI) in the assay on A549 NSCLC, in the assay on DLD-1 colon, in the assay on M19-MEL melanoma, in the assay on MOLT-4 leukemia, with NCI-H522 lung and with SF-295 CNS was more than 100 µM throughout. The total growth inhibition concentration (TGI) in the assay with SK-MEL-2 melanoma and in the assay on SW-620 colon was more than 100 µM in each case.
Regarding `CC(C)=CCC(OC(=O)C=C(C)C)C1=CC(=O)c2c(O)ccc(O)c2C1=O` (stereo not drawn), the TGI with A549 NSCLC was 18.7 µM; in the assay with DLD-1 colon, 0.674 µM; in the assay on HOP-62 NSCLC it was 25.7 µM and 24.4 µM; in the assay with M19-MEL melanoma it was 1.87 µM; with MOLT-4 leukemia it was 1.29 µM and 1.42 µM; in the assay with NCI-H522 lung, 1.84 µM and 0.231 µM. Further, the TGI was 20.9 µM and 6.13 µM with SF-295 CNS; 12.1 µM and 5.85 µM with SK-MEL-2 melanoma; 1.27 µM and 0.867 µM in the assay on SW-620 colon. Also, the 50% growth inhibitory concentration (GI50) is 0.182 µM and 0.0424 µM in the assay on MOLT-4 leukemia; 0.414 µM and 0.104 µM in the assay on NCI-H522 lung; 2.15 µM with SF-295 CNS; 2.97 µM in the assay on SK-MEL-2 melanoma; 0.327 µM with SW-620 colon.
As for `O=S(=O)(NCn1ccc2ccccc21)c1ccccc1`, the TGI in the assay with A549 NSCLC, in the assay on DLD-1 colon, in the assay with HOP-62 NSCLC, with M19-MEL melanoma, in the assay on MOLT-4 leukemia and in the assay on NCI-H522 lung was more than 100 µM each time. The TGI with SF-295 CNS, in the assay with SK-MEL-2 melanoma and in the assay on SW-620 colon was more than 100 µM throughout.
Take `Cc1ccc(S(=O)(=O)c2ccccc2[N+](=O)[O-])cc1`: the concentration for total growth inhibition (TGI) with A549 NSCLC, in the assay on DLD-1 colon, in the assay with HOP-62 NSCLC, in the assay on M19-MEL melanoma, in the assay on MOLT-4 leukemia and in the assay on SF-295 CNS was more than 100 µM throughout. Besides, the TGI in the assay with SK-MEL-2 melanoma and with SW-620 colon was more than 100 µM throughout.
As to `Cc1cc(N(CCC#N)CCC#N)ccc1N=Nc1ccc(Br)cc1`, the TGI in the assay on A549 NSCLC was more than 45.9 µM; with DLD-1 colon, more than 100 µM; in the assay with HOP-62 NSCLC it was 20.9 µM; in the assay with M19-MEL melanoma, more than 100 µM; in the assay with MOLT-4 leukemia, more than 58.8 µM; with NCI-H522 lung it was 59.8 µM. Besides, the TGI was more than 51 µM in the assay with SF-295 CNS, 48.9 µM in the assay on SK-MEL-2 melanoma and more than 100 µM in the assay on SW-620 colon.
As to `COC(=O)CC(NC(=O)OCc1ccccc1)C(C(=O)OCc1ccccc1)C(C)(OC)OC` (stereo not drawn), the total growth inhibition concentration (TGI) in the assay on A549 NSCLC was 85.1 µM; in the assay on DLD-1 colon, more than 100 µM; in the assay on HOP-62 NSCLC, more than 100 µM; in the assay on M19-MEL melanoma it was more than 100 µM; in the assay with MOLT-4 leukemia it was 33 µM; with SF-295 CNS it was more than 100 µM. Moreover, the TGI in the assay with SK-MEL-2 melanoma was 36.5 µM; with SW-620 colon, more than 100 µM.
As to `CC(=O)[O-].[Mn+3].[O-]c1ccccc1C=NCCNCCN=Cc1ccccc1[O-]`, the GI50 was more than 100 µM with A549 NSCLC; more than 100 µM in the assay on M19-MEL melanoma; more than 100 µM with MOLT-4 leukemia; 66 µM in the assay on NCI-H522 lung; more than 100 µM with SF-295 CNS; more than 100 µM with SK-MEL-2 melanoma. The TGI with A549 NSCLC, in the assay with M19-MEL melanoma, in the assay with MOLT-4 leukemia, with NCI-H522 lung, with SF-295 CNS and in the assay on SK-MEL-2 melanoma was more than 100 µM throughout.
Take `COC(=O)c1c2c(cc3c1CC1(Cc4cc5c(c(C(C)=O)c4C1)CCC5)C3)CCC2` (stereo not drawn): the TGI with A549 NSCLC, in the assay with DLD-1 colon, with HOP-62 NSCLC, in the assay with M19-MEL melanoma, in the assay with MOLT-4 leukemia and with NCI-H522 lung was more than 100 µM in each case. Besides, the results for the TGI in the assay on SF-295 CNS and in the assay on SW-620 colon were 99.3 µM and more than 100 µM, respectively.
For the compound `N.N.N.N.N.O=[N+]([O-])[O-].[Co+3].[O-][Cl+3]([O-])([O-])[O-]`, the GI50 with A549 NSCLC, in the assay on DLD-1 colon, in the assay on HOP-62 NSCLC, in the assay on MOLT-4 leukemia, with NCI-H522 lung and with SF-295 CNS was more than 100 µM in each case. In addition, the GI50 in the assay with SK-MEL-2 melanoma and in the assay with SW-620 colon was more than 100 µM in each case. Further, the total growth inhibition concentration (TGI) with A549 NSCLC, in the assay with DLD-1 colon, in the assay with HOP-62 NSCLC, in the assay on MOLT-4 leukemia, in the assay with NCI-H522 lung and in the assay on SF-295 CNS was more than 100 µM in each case. Further, the TGI in the assay on SK-MEL-2 melanoma and with SW-620 colon was more than 100 µM each time.
